Laboratory results: PMC8543028 (Infection and Drug Resistance, 2021)

Experiments:
[1] = system: M. tuberculosis H37Ra; format: cell-based, Mycobacterium tuberculosis
[2] = system: M. tuberculosis H37Rv ATCC 27294 reference strain; format: cell-based, Mycobacterium tuberculosis

Structure (SMILES): O=[N+]([O-])c1ccc(/C(O)=C/C(=S)S)cc1 [Compound 11e, (Z)-3-hydroxy-3-(4-nitrophenyl)-prop-2-enedithioic acid]
- MIC100 in H37Ra [1]: active
- inhibitory activity compared with 11a [2]: eight times that of 11a
